This is an account of results in patent publication US10722495B2, “Cyanoindazole compounds and uses thereof” (Incyte Corporation, priority 2017, dated 2020).

The target of the assay is HPK1 (Homo sapiens (Human), UniProt Q92918). Description: HPK1 Kinase Binding Assay. The settings on record: active HPK1 (SignalChem M23-11G), tracer 222, LanthaScreen Eu-Anti GST antibody, one hour incubation at 25° C. On the procedure: Example A. HPK1 Kinase Binding Assay
HPK1, sequence (Q92918 1-346): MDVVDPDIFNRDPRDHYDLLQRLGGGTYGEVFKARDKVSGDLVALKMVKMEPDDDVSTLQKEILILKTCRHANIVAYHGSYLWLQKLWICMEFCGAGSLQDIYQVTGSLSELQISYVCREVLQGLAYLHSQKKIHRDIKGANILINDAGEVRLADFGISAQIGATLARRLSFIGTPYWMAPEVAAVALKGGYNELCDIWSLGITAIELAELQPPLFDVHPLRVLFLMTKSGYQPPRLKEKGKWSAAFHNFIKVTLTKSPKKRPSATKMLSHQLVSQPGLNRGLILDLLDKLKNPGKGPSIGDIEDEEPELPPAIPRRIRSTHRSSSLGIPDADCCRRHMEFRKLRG
A stock solution of 1 mM test compound was prepared in DMSO. The compound plate was prepared by 3-fold and 11-point serial dilutions. 0.1 μL of the compound in DMSO was transferred from the compound plate to the white 384 well polystyrene plates. The assay buffer contained 50 mM HEPES, pH 7.5, 0.01% Tween-20, 5 mM MgCl2, 0.01% BSA, and 5 mM DTT. 5 μl of 4 nM active HPK1 (SignalChem M23-11G) prepared in the buffer was added to the plate. The enzyme concentration given was based on the given stock concentration reported by the vender. 5 μl of 18 nM tracer 222 (ThermoFisher PV6121) and 4 nM LanthaScreen Eu-Anti GST antibody (ThermoFisher PV5595) were added. After one hour incubation at 25° C., the plates were read on a PHERAstar FS plate reader (BMG Labtech). Ki values were determined.
On the technique in general: In TR-FRET formats the signal depends on donor and acceptor labels being close together.
One may read the Ki as the equilibrium dissociation constant of an inhibitor or competing ligand from its target. Higher therefore signals lower affinity. `COc1cccc(F)c1-c1cc2c(-c3cnn(C)c3)n[nH]c2cc1C#N` [Example 50, 5-(2-Fluoro-6-methoxyphenyl)-3-(1-methyl-1H-pyrazol-4-yl)-1H-indazole-6-carbonitrile]: the Ki was ≤ 0.1 µM. For `CNCc1cc(C)c(-c2cc3c(-c4cnc(N5CCN(C)CC5)nc4)n[nH]c3cc2C#N)c(F)c1` [Example 27, 5-(2-Fluoro-6-methyl-4-((methylamino)methyl)phenyl)-3-(2-(4-methylpiperazin-1-yl)pyrimidin-5-yl)-1H-indazole-6-carbonitrile], the Ki was ≤ 0.1 µM. On to `CNCc1cc(C)c(-c2cc3c(-c4ccc(C(=O)NC(C)C)cc4Cl)n[nH]c3cc2C#N)c(F)c1` [Example 22, 3-Chloro-4-(6-cyano-5-(2-fluoro-6-methyl-4-((methylamino)methyl)phenyl)-1H-indazol-3-yl)-N-isopropylbenzamide], for which the Ki is ≤ 0.1 µM. Consider `CNCc1cc(C)c(-c2cc3c(-c4ccc(C(C)(C)C#N)cc4)n[nH]c3cc2C#N)c(F)c1` [Example 19, 3-(4-(2-Cyanopropan-2-yl)phenyl)-5-(2-fluoro-6-methyl-4-((methylamino)methyl)phenyl)-1H-indazole-6-carbonitrile], for which the Ki is ≤ 0.1 µM.

On to `CNCc1cc(C)c(-c2cc3c(-c4cn[nH]c4)n[nH]c3cc2C#N)c(F)c1` [Example 4, 5-(2-Fluoro-6-methyl-4-((methylamino)methyl)phenyl)-3-(1H-pyrazol-4-yl)-1H-indazole-6-carbonitrile], for which the Ki is ≤ 0.1 µM.

Regarding `CNCc1cc(C)c(-c2cc3c(-c4ccc(CO)cc4)n[nH]c3cc2C#N)c(F)c1` [Example 7, 5-(2-Fluoro-6-methyl-4-((methylamino)methyl)phenyl)-3-(4-(hydroxymethyl)phenyl)-1H-indazole-6-carbonitrile], the Ki was ≤ 0.1 µM. For `CNCc1cc(C)c(-c2cc3c(-c4ccc(C(C)(C)O)nc4)n[nH]c3cc2C#N)c(F)c1` [Example 33, 5-(2-Fluoro-6-methyl-4-((methylamino)methyl)phenyl)-3-(6-(2-hydroxypropan-2-yl)pyridin-3-yl)-1H-indazole-6-carbonitrile], the Ki is ≤ 0.1 µM. As to `CNCc1cc(C)c(-c2cc3c(-c4ccc(C)cc4)n[nH]c3cc2C#N)c(F)c1` [Example 11, 5-(2-Fluoro-6-methyl-4-((methylamino)methyl)phenyl)-3-p-tolyl-1H-indazole-6-carbonitrile], the Ki is ≤ 0.1 µM.

For the molecule `CC[C@@H](C)Nc1ccc(-c2n[nH]c3cc(C#N)c(-c4c(C)cc(CNC)cc4F)cc23)cn1` [Example 43, 3-(6-(((R)-sec-Butyl)amino)pyridin-3-yl)-5-(2-fluoro-6-methyl-4-((methylamino)methyl)phenyl)-1H-indazole-6-carbonitrile], the Ki is ≤ 0.1 µM. Turning to `CNCc1cc(C)c(-c2cc3c(-c4ccc(N5CCOCC5)nc4)n[nH]c3cc2C#N)c(F)c1` [Example 28, 5-(2-Fluoro-6-methyl-4-((methylamino)methyl)phenyl)-3-(6-morpholinopyridin-3-yl)-1H-indazole-6-carbonitrile], the Ki was ≤ 0.1 µM. As for `CNCc1cc(C)c(-c2cc3c(-c4ccc(C(=O)N(C)C)cc4)n[nH]c3cc2C#N)c(F)c1` [Example 9, 4-(6-Cyano-5-(2-fluoro-6-methyl-4-((methylamino)methyl)phenyl)-1H-indazol-3-yl)-N,N-dimethylbenzamide], the Ki was ≤ 0.1 µM. Regarding `CNCc1cc(C)c(-c2cc3c(-c4ccc(NC(C)=O)nc4)n[nH]c3cc2C#N)c(F)c1` [Example 29, N-(5-(6-Cyano-5-(2-fluoro-6-methyl-4-((methylamino)methyl)phenyl)-1H-indazol-3-yl)pyridin-2-yl)acetamide], the Ki is ≤ 0.1 µM. `CNCc1cc(C)c(-c2cc3c(-c4cnc(C)o4)n[nH]c3cc2C#N)c(F)c1` [Example 40, 5-(2-Fluoro-6-methyl-4-((methylamino)methyl)phenyl)-3-(2-methyloxazol-5-yl)-1H-indazole-6-carbonitrile]: the Ki was ≤ 0.1 µM.

For the molecule `Cc1ccccc1-c1cc2c(-c3cnn(C)c3)n[nH]c2cc1C#N` [Example 48, 3-(1-Methyl-1H-pyrazol-4-yl)-5-o-tolyl-1H-indazole-6-carbonitrile], the Ki is ≤ 0.1 µM. Consider `CNCc1cc(C)c(-c2cc3c(-c4ccc(CC#N)cc4)n[nH]c3cc2C#N)c(F)c1` [Example 16, 3-(4-(Cyanomethyl)phenyl)-5-(2-fluoro-6-methyl-4-((methylamino)methyl)phenyl)-1H-indazole-6-carbonitrile], for which the Ki is ≤ 0.1 µM. `CNCc1cc(C)c(-c2cc3c(-c4cccc(N5CCC(O)CC5)n4)n[nH]c3cc2C#N)c(F)c1` [Example 45, 5-(2-Fluoro-6-methyl-4-((methylamino)methyl)phenyl)-3-(6-(4-hydroxypiperidin-1-yl)pyridin-2-yl)-1H-indazole-6-carbonitrile]: the Ki was ≤ 0.1 µM.

For the molecule `CNCc1cc(C)c(-c2cc3c(-c4cnn(C5CC5)c4)n[nH]c3cc2C#N)c(F)c1` [Example 2, 3-(1-Cyclopropyl-1H-pyrazol-4-yl)-5-(2-fluoro-6-methyl-4-((methylamino)methyl)phenyl)-1H-indazole-6-carbonitrile], the Ki was ≤ 0.1 µM. For `CNCc1cc(C)c(-c2cc3c(-c4cnn(-c5ccccc5Cl)c4)n[nH]c3cc2C#N)c(F)c1` [Example 5, 3-(1-(2-Chlorophenyl)-1H-pyrazol-4-yl)-5-(2-fluoro-6-methyl-4-((methylamino)methyl)phenyl)-1H-indazole-6-carbonitrile], the Ki was ≤ 0.1 µM.

Regarding `CNCc1cc(C)c(-c2cc3c(-c4ccc(C5CCOCC5)cc4)n[nH]c3cc2C#N)c(F)c1` [Example 39, 5-(2-Fluoro-6-methyl-4-((methylamino)methyl)phenyl)-3-(4-(tetrahydro-2H-pyran-4-yl)phenyl)-1H-indazole-6-carbonitrile], the inhibition constant (Ki) was ≤ 0.1 µM.

As for `CNCc1cc(C)c(-c2cc3c(-c4cnn(C(C)C)c4)n[nH]c3cc2C#N)c(F)c1` [Example 6, 5-(2-Fluoro-6-methyl-4-((methylamino)methyl)phenyl)-3-(1-isopropyl-1H-pyrazol-4-yl)-1H-indazole-6-carbonitrile], the Ki is ≤ 0.1 µM.
